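Values below derive from 48-hour exposures of cells grown in 96-well plates, with endpoints linearly interpolated between the two concentrations bracketing the appropriate inhibition level. GI50: concentration for 50% inhibition of growth.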 Active and inactive are the calls of the source. Rule as the data show it: active = GI50 up to about 1.1 µM and inactive = higher.
What was measured:
Test in all cases: NCI tumour cell line growth inhibition, 48 h
[1] = tested on: SNB-75
[2] = tested on: M19-MEL
[3] = tested on: KM12
[4] = tested on: COLO 205
[5] = tested on: CAKI-1
[6] = tested on: XF498
[7] = tested on: A549
[8] = tested on: EKVX
[9] = tested on: DLD-1
[10] = tested on: K562
[11] = tested on: SK-MEL-28
[12] = tested on: OVCAR-4
[13] = tested on: HOP-92
[14] = tested on: RPMI-8226
[15] = tested on: SF-539
[16] = tested on: UACC-257
[17] = tested on: HCT-15
[18] = tested on: HCT-116
[19] = tested on: HL-60
[20] = tested on: A498
[21] = tested on: SF-295
[22] = tested on: UO-31
[23] = tested on: SK-MEL-5
[24] = tested on: RXF 393
[25] = tested on: SW-620
[26] = tested on: LXFL 529
[27] = tested on: SNB-19
[28] = tested on: TK-10
[29] = tested on: DMS-114
[30] = tested on: KM-20L2
[31] = tested on: U-251
[32] = tested on: SN12C
[33] = tested on: LOX IMVI
[34] = tested on: SNB-78
[35] = tested on: Malme-3M
[36] = tested on: M14
[37] = tested on: OVCAR-5
[38] = tested on: CCRF-CEM
[39] = tested on: OVCAR-8
[40] = tested on: OVCAR-3
[41] = tested on: HOP-62
[42] = tested on: NCI-H460
[43] = tested on: HCC 2998
[44] = tested on: HT-29
[45] = tested on: SK-MEL-2
[46] = tested on: NCI-H23
[47] = tested on: 786-0
[48] = tested on: DMS-273
[49] = tested on: NCI-H522
[50] = tested on: UACC-62
[51] = tested on: IGROV-1
[52] = tested on: SF-268
[53] = tested on: RXF 631
[54] = tested on: MOLT-4
[55] = tested on: SR
[56] = tested on: NCI-H226
[57] = tested on: HOP-18
[58] = tested on: SK-OV-3
[59] = tested on: ACHN

Q: For `CC1CC2C3CCC4=CC(=O)C=CC4(C)C3(F)C(O)CC2(C)C1(O)C(=O)CO.Cc1nnc(NS(=O)(=O)c2ccc(/N=N/c3cc(/N=N/c4ccc(S(=O)(=O)Nc5nnc(C)s5)cc4)c4c(NC(=O)C(Cl)Cl)cccc4c3OC(=O)C(Cl)Cl)cc2)s1`, which GI50 [1] is on record?
A: 37.3 µM (inactive)

Q: What about the GI50 [2] of the same molecule?
A: 18.5 µM (inactive)

Q: And the GI50 [3]?
A: 23.6 µM (inactive)

Q: What about the GI50 [4] of the same molecule?
A: 12.1 µM (inactive)

Q: What about the GI50 [5] of the same molecule?
A: 81.5 µM (inactive)

Q: What about the GI50 [6] of the same molecule?
A: 25.8 µM (inactive)

Q: What about the GI50 [7] of the same molecule?
A: 11.6 µM (inactive)

Q: What about the GI50 [8] of the same molecule?
A: 34.4 µM (inactive)

Q: And the GI50 [9]?
A: 16.1 µM (inactive)

Q: And the GI50 [10]?
A: 22.9 µM (inactive)

Q: And the GI50 [11]?
A: 20.8 µM (inactive)

Q: And the GI50 [12]?
A: 22.6 µM (inactive)

Q: And the GI50 [13]?
A: 51.6 µM (inactive)

Q: And the GI50 [14]?
A: < 0.01 µM (active)

Q: What about the GI50 [15] of the same molecule?
A: 18.9 µM (inactive)

Q: What about the GI50 [16] of the same molecule?
A: 38.5 µM (inactive)

Q: And the GI50 [17]?
A: 35.5 µM

Q: What about the GI50 [18] of the same molecule?
A: 15 µM (inactive)

Q: What about the GI50 [19] of the same molecule?
A: 9.95 µM (inactive)

Q: And the GI50 [20]?
A: 30.1 µM (inactive)

Q: What about the GI50 [21] of the same molecule?
A: 42.3 µM (inactive)

Q: And the GI50 [22]?
A: 46.7 µM (inactive)

Q: What about the GI50 [23] of the same molecule?
A: 22.4 µM (inactive)

Q: What about the GI50 [24] of the same molecule?
A: 21.2 µM (inactive)

Q: And the GI50 [25]?
A: 22.6 µM (inactive)

Q: And the GI50 [26]?
A: 31.9 µM (inactive)

Q: What about the GI50 [27] of the same molecule?
A: 48.5 µM (inactive)

Q: And the GI50 [28]?
A: 43.3 µM (inactive)

Q: What about the GI50 [29] of the same molecule?
A: 18.7 µM (inactive)

Q: And the GI50 [30]?
A: 31.3 µM (inactive)

Q: What about the GI50 [31] of the same molecule?
A: 37.1 µM (inactive)

Q: What about the GI50 [32] of the same molecule?
A: 3.3 µM (inactive)

Q: And the GI50 [33]?
A: 33.3 µM (inactive)

Q: And the GI50 [34]?
A: > 100 µM (inactive)

Q: What about the GI50 [35] of the same molecule?
A: 26.5 µM (inactive)

Q: And the GI50 [36]?
A: 28.4 µM (inactive)

Q: What about the GI50 [37] of the same molecule?
A: 27.9 µM (inactive)

Q: What about the GI50 [38] of the same molecule?
A: 1.08 µM (active)

Q: What about the GI50 [39] of the same molecule?
A: 11.6 µM (inactive)

Q: And the GI50 [40]?
A: 19.2 µM (inactive)

Q: And the GI50 [41]?
A: 88.5 µM (inactive)

Q: And the GI50 [42]?
A: 21.5 µM (inactive)

Q: And the GI50 [43]?
A: 21.3 µM (inactive)

Q: What about the GI50 [44] of the same molecule?
A: 8.85 µM (inactive)

Q: What about the GI50 [45] of the same molecule?
A: 21.2 µM (inactive)

Q: And the GI50 [46]?
A: 12.1 µM (inactive)

Q: And the GI50 [47]?
A: 25.6 µM (inactive)

Q: What about the GI50 [48] of the same molecule?
A: 11.7 µM (inactive)

Q: And the GI50 [49]?
A: 21.6 µM (inactive)

Q: And the GI50 [50]?
A: 33 µM (inactive)

Q: What about the GI50 [51] of the same molecule?
A: 24.5 µM (inactive)

Q: And the GI50 [52]?
A: 24 µM (inactive)

Q: And the GI50 [53]?
A: 34.6 µM (inactive)

Q: And the GI50 [54]?
A: 5.53 µM (inactive)

Q: What does the source list for `CC1=CC(=O)C(C)(C2=NC(C)(C)CO2)c2ccccc21` (configuration not stated)?
A: GI50 [1]: > 100 µM (inactive); GI50 [2]: > 100 µM (inactive); GI50 [3]: > 100 µM (inactive); GI50 [4]: > 100 µM (inactive); GI50 [5]: > 100 µM (inactive); GI50 [7]: > 100 µM (inactive); GI50 [8]: > 100 µM (inactive); GI50 [9]: > 100 µM (inactive); GI50 [10]: > 100 µM (inactive); GI50 [11]: > 100 µM (inactive); GI50 [12]: > 100 µM (inactive); GI50 [13]: > 100 µM (inactive); GI50 [14]: > 100 µM (inactive); GI50 [15]: > 100 µM (inactive); GI50 [16]: > 100 µM (inactive); GI50 [17]: > 100 µM; GI50 [18]: > 100 µM (inactive); GI50 [19]: > 100 µM (inactive); GI50 [21]: > 100 µM (inactive); GI50 [22]: > 100 µM (inactive); GI50 [23]: > 100 µM (inactive); GI50 [24]: > 100 µM (inactive); GI50 [25]: > 100 µM (inactive); GI50 [26]: > 100 µM (inactive); GI50 [55]: > 100 µM (inactive); GI50 [27]: > 100 µM (inactive); GI50 [28]: > 100 µM (inactive); GI50 [29]: > 100 µM (inactive); GI50 [30]: > 100 µM (inactive); GI50 [31]: > 100 µM (inactive); GI50 [32]: > 100 µM (inactive); GI50 [35]: > 100 µM (inactive); GI50 [36]: > 100 µM (inactive); GI50 [38]: > 100 µM (inactive); GI50 [39]: > 100 µM (inactive); GI50 [40]: > 100 µM (inactive); GI50 [41]: > 100 µM (inactive); GI50 [56]: > 100 µM (inactive); GI50 [42]: > 100 µM (inactive); GI50 [57]: 31.6 µM (inactive); GI50 [44]: > 100 µM (inactive); GI50 [45]: > 100 µM (inactive); GI50 [46]: > 100 µM (inactive); GI50 [47]: > 100 µM (inactive); GI50 [58]: > 100 µM (inactive); GI50 [49]: > 100 µM (inactive); GI50 [50]: > 100 µM (inactive); GI50 [51]: > 100 µM (inactive); GI50 [52]: > 100 µM (inactive); GI50 [53]: > 100 µM (inactive); GI50 [54]: > 100 µM (inactive); GI50 [59]: > 100 µM (inactive)

Q: What does the source list for `CC(C)c1ccccc1NC(=O)CCC(=O)NN`?
A: GI50 [1]: > 100 µM (inactive); GI50 [2]: > 100 µM (inactive); GI50 [3]: > 100 µM (inactive); GI50 [5]: > 100 µM (inactive); GI50 [6]: > 100 µM (inactive); GI50 [7]: > 100 µM (inactive); GI50 [8]: > 100 µM (inactive); GI50 [9]: > 100 µM (inactive); GI50 [10]: > 100 µM (inactive); GI50 [11]: > 100 µM (inactive); GI50 [13]: > 100 µM (inactive); GI50 [14]: > 100 µM (inactive); GI50 [15]: > 100 µM (inactive); GI50 [16]: > 100 µM (inactive); GI50 [17]: > 100 µM; GI50 [18]: > 100 µM (inactive); GI50 [19]: > 100 µM (inactive); GI50 [21]: > 100 µM (inactive); GI50 [22]: > 100 µM (inactive); GI50 [25]: > 100 µM (inactive); GI50 [26]: > 100 µM (inactive); GI50 [55]: > 100 µM (inactive); GI50 [27]: > 100 µM (inactive); GI50 [28]: > 100 µM (inactive); GI50 [30]: > 100 µM (inactive); GI50 [31]: > 100 µM (inactive); GI50 [32]: > 100 µM (inactive); GI50 [33]: > 100 µM (inactive); GI50 [34]: > 100 µM (inactive); GI50 [35]: > 100 µM (inactive); GI50 [36]: > 100 µM (inactive); GI50 [38]: > 100 µM (inactive); GI50 [40]: > 100 µM (inactive); GI50 [56]: > 100 µM (inactive); GI50 [45]: > 100 µM (inactive); GI50 [46]: > 100 µM (inactive); GI50 [47]: > 100 µM (inactive); GI50 [48]: > 100 µM (inactive); GI50 [58]: > 100 µM (inactive); GI50 [49]: > 100 µM (inactive); GI50 [50]: > 100 µM (inactive); GI50 [51]: > 100 µM (inactive); GI50 [52]: > 100 µM (inactive); GI50 [53]: > 100 µM (inactive); GI50 [54]: > 100 µM (inactive); GI50 [59]: > 100 µM (inactive)
